Among the data in the NIST ThermoML archive (doi:10.1016/j.jct.2015.12.034) are activity coefficient values, retold here.

± gives the expanded uncertainty stated by the source.

The data set can be described thus: activity coefficient (dimensionless); of the first substance listed, at infinite dilution; xn = mol fraction of the nth substance listed. The conditions noted are these: 298.15 K; 238 kPa; Liquid; Chromatography; x1 = 0.
As for `Cc1ccccc1` [toluene] + CC(C)=O, the activity coefficient amounted to 2.01 ± 0.17.

As for `Cc1ccccc1` [toluene] + CC#N, the activity coefficient came out at 3.95 ± 0.34.

With `CCCCCCCC` [octane] + CC#N, the activity coefficient was 52.3 ± 4.5.

For the molecule `CCCCCCCC` [octane] + CC(C)=O, the activity coefficient came out at 10.7 ± 0.9.
